Measurements: patent US12403090B2, “Oral film compositions and dosage forms having precise active dissolution profiles” (Aquestive Therapeutics, Inc., priority 2018, dated 2025)

Assay: Solubility of clobazam in COSF liquid mix and oral films
Assay type: physicochemical
Settings: API or films in 1.5 ml water; wet mass as such
Experimental: An experiment was conducted to assess the solubility of clobazam in the liquid mix (pre-drying) and oral films (COSF). Oral thin films containing 10 mg and 20 mg clobazam were prepared and then dissolved in 1.5 ml water. Two other samples were evaluated—one being the active in water (without the excipients added to the composition for oral films); and second being the liquid mix for the film but tested prior to film forming (i.e., drying).

With CN1C(=O)CC(=O)N(c2ccccc2)c2cc(Cl)ccc21 [COSF API 10 mg, clobazam] the “% Clobazam Dissolved in sample” value was 1.576% and the “Actual Clobazam (mg/ml) in supernatant” value was 0.11 mg/mL.
